{"source": "paper PMC6108835", "about": "“Target-Based Discovery of an Inhibitor of the Regulatory Phosphatase PPP1R15B” (Cell, 2018)", "key": {"[1]": {"target": "T1, R15A-PP1c holophosphatase (R15A^325-636-PP1c) (Homo sapiens, UniProt O75807)", "T1 construct": "cDNAs encoding amino acids 325-636 of R15A and 340-698 of R15B were cloned into pMAL-c5x; made in house; host or cells: R15A: E. coli BL21-Gold (DE3) pLysS; bio-PP1c: Sf9 insect cells (baculovirus)", "T1 sequence (O75807 325-636, stated change not applied)": "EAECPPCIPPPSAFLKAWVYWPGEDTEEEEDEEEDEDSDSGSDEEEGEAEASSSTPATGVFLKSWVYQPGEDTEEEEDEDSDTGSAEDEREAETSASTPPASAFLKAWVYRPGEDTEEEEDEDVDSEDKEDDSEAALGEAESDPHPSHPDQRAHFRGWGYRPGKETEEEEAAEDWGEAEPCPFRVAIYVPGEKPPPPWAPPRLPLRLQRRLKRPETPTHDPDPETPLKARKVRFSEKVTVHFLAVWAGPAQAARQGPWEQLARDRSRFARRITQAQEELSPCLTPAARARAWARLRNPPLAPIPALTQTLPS", "T1 sequence (P36873 1-322 partner)": "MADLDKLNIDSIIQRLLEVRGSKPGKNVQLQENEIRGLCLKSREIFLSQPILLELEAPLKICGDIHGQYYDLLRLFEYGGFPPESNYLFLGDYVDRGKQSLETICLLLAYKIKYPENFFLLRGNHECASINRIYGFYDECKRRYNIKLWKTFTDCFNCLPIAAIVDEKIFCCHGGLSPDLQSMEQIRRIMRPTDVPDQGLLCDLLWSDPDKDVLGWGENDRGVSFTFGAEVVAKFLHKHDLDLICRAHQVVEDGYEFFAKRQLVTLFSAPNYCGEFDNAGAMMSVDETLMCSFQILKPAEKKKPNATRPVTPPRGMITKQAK", "test": "Holophosphatase SPR, compounds binding to reconstituted R15A-PP1c", "conditions": "holophosphatase reconstituted on SA chip; 20°C; mean ± SD; read-out: KD, steady-state affinity for R15A-PP1c", "protocol": "(§1) Small molecules were stored as 50 mM stock solutions in 100% DMSO. […] If necessary the concentration range was adjusted to accurately determine the KD depending on the initial results. […] This was followed by 1 min stabilization period, to wash off any unspecific binding. […] After each dilution series, the surface was regenerated using 3 M NaCl for 90 s. […] In order to be able to correct for small variations in DMSO concentration between samples, eight solvent samples ranging from 0.06 to 8% DMSO were injected every 50th cycle. The flow cell temperature was 20°C."}, "[2]": {"target": "T2, R15B-PP1c holophosphatase (R15B^340-698-PP1c) (Homo sapiens, UniProt Q5SWA1)", "T2 construct": "cDNAs encoding amino acids 325-636 of R15A and 340-698 of R15B were cloned into pMAL-c5x; made in house; host or cells: R15B: E. coli BL21-Gold (DE3) pLysS; bio-PP1c: Sf9 insect cells (baculovirus)", "T2 sequence (P36873 1-322 partner limits assumed, one chain of several)": "as the sequence (P36873 1-322 partner) above", "test": "Holophosphatase SPR, compounds binding to reconstituted R15B-PP1c", "conditions": "holophosphatase reconstituted on SA chip; 20°C; mean ± SD; read-out: KD, steady-state affinity for R15B-PP1c", "protocol": "as §1"}, "[3]": {"test_system": "R15B-PP1c holophosphatase (R15B^340-698-PP1c)", "test": "Holophosphatase SPR, compounds binding to reconstituted R15B-PP1c", "set-up": "species or system human", "conditions": "ratio of SPR KD values", "protocol": "as §1"}, "R15B": {"target": "T3, R15B (Homo sapiens, UniProt Q5SWA1)", "T3 construct": "endogenous in cells; host or cells: HeLa", "T3 sequence (Q5SWA1 1-713)": "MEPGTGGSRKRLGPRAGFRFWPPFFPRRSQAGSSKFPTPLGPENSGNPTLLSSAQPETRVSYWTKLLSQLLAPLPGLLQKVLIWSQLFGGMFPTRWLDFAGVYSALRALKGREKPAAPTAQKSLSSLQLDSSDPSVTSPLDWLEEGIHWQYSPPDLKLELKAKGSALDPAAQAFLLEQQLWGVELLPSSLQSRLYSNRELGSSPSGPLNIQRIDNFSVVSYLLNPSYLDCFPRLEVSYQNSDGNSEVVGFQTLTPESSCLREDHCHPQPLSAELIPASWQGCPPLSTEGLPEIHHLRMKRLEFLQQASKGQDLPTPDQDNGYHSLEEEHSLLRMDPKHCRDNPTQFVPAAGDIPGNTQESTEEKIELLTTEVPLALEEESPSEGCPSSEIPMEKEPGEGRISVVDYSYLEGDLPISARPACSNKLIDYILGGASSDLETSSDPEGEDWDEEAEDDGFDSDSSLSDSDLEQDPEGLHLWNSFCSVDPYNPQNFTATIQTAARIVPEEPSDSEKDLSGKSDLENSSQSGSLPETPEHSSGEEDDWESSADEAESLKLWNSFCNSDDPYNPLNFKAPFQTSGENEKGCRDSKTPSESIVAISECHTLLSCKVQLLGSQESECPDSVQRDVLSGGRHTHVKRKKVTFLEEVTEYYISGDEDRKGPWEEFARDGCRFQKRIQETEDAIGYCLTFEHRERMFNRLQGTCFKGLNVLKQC", "test": "R15B levels on immunoblots of HeLa cell lysates", "assay_type": "cell-based", "conditions": "HeLa cells, Raphin1 10 μM", "protocol": "HeLa or MEF cells (90,000 cells/mL) were plated in 12-well plates (1 mL/well). The following day cells were treated as indicated; the medium was removed, fresh medium containing compound added and incubated at 37°C for the times indicated. The time course was performed in reverse order to facilitate collecting all samples at the same time. At the end of treatment cells were washed two times with ice-cold PBS and lysed in 150 μL Laemmli Buffer. […] Proteins were transferred to the nitrocellulose membrane using the iBlot 2 system (ThermoFisher Scientific). Membrane was blocked in 5% skimmed milk for 30 min and then probed with primary antibodies followed by incubation with the appropriate horseradish peroxidase-conjugated secondary antibodies (Promega). Proteins were visualized using ECL Prime (GE Healthcare) and imaged in the Chemi-Smart 5000 (Vilber-Lourmat, France) or ChemiDoc Touch (BioRad). Bands were quantified using ImageJ (NIH, USA)."}, "[4]": {"test": "Pharmacokinetics after single oral administration in mice", "assay_type": "in vivo", "conditions": "mouse", "protocol": "The acetate salts of Raphin1 or GBZ were dissolved in water and sonicated for 10 min. The solution was aliquoted and kept at −20°C until use. Once thawed a tube was kept at 4°C and used within 24 hr. The compounds were administered by oral gavage.\nRaphin1 was administered at 2 mg/kg (unless otherwise specified). Mice received a single dose or were treated chronically – one time per day. Control mice were treated with vehicle (water) only.\nPharmacokinetics studies were performed by XenoGesis Ldt. Raphin1 was administrated orally in 6 weeks old treatment- and test-naive C57BL/6J males. Plasma samples were prepared by protein precipitation with methanol containing internal standards. Tissues were weighed and prepared by homogenization (1:3 in phosphate buffered saline) and protein precipitated with methanol containing internal standard. Following the addition of methanol, plasma and tissue samples were placed at −20°C for ≥ 1 hr (or overnight) to allow proteins to precipitate. The samples were then centrifuged at 2,500 x g (3,400 rpm) for 20 min at 4°C. The supernatants were analyzed by LC-MS/MS."}, "R15A": {"target": "R15A (Homo sapiens, UniProt O75807)", "sequence (O75807 325-636, stated change not applied)": "as the sequence (O75807 325-636, stated change not applied) above", "test": "Limited trypsin digestion of R15A", "set-up": "cDNAs encoding amino acids 325-636 of R15A and 340-698 of R15B were cloned into pMAL-c5x; made in house; host or cells: E. coli BL21-Gold (DE3) pLysS", "conditions": "R15 3 μM, compound 100 μM, trypsin 5 nM, 5 min, 22°C", "protocol": "Reactions were initiated by addition of 5 nM of trypsin from bovine pancreas (Sigma-Aldrich), made up in PBS, and allowed to proceed for 5 min at 22°C, with shaking at 350 rpm. […] Proteins were visualized by staining with InstantBlue Protein Stain (Expedeon)."}}}
{"smiles": "[H]/N=C(\\N)NN=Cc1cccc(Cl)c1Cl", "note": "[Raphin1, (E)-2-(2,3-dichlorobenzylidene)hydrazine-1-carboximidamide]", "values": [{"measurement": "Kd", "setting": "[1]", "result": 977, "unit": "nM"}, {"measurement": "Kd", "setting": "[2]", "result": "33 ± 20", "unit": "nM"}, {"measurement": "Selectivity in binding R15B-PP1c over R15A-PP1c", "setting": "[3]", "result": "~30", "unit": "fold"}, {"measurement": "R15B levels", "setting": "R15B", "result": "significantly decreased"}, {"measurement": "half-life", "setting": "[4]; male, C57BL/6J, brain, single oral dose 2 mg/kg", "result": "240 to 360", "unit": "min"}, {"measurement": "Oral bioavailability (in words)", "setting": "[4]", "result": "orally bioavailable"}, {"measurement": "Blood-brain barrier crossing", "setting": "[4]; single oral dose 2 mg/kg", "result": "crossed the blood-brain barrier"}, {"measurement": "Peak concentration in the brain", "setting": "[4]; single oral dose 2 mg/kg", "result": "~1.5", "unit": "µM"}, {"measurement": "Protease sensitivity of R15A (limited proteolysis, conformational change)", "setting": "R15A", "result": "no effect"}]}
